Values belong to the molecule of their own block, whether it stands above or below them.
Legend:
Assay in all cases: competitive isoTOP-ABPP
Assay type in all cases: binding
[1] = target: T1, ABHD10 Abhydrolase domain-containing protein 10, mitochondrial (Homo sapiens, UniProt Q9NUJ1)
T1 construct: endogenous in cells; host or cells: MDA-MB-231 lysate
T1 sequence (Q9NUJ1 53-306): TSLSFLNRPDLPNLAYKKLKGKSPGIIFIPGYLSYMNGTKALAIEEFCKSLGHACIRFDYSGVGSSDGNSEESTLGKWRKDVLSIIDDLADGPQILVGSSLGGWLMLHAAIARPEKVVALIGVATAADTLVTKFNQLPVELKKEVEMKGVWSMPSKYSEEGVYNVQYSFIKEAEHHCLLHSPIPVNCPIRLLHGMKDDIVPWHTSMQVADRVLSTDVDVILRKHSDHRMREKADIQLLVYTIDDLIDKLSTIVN
Description: In vitro covalent fragment treatment for isoTOP-ABPP. All compounds were made up as solutions in DMSO (100×) and were used at a final concentration of 50 μM for activated esters and 100 μM for guanidinylating agents. For each profiling sample, 0.5 ml of lysate was treated with 5 μl of the 100× compound stock solution or 5 μl of DMSO. Samples were treated with activated esters for
STP-alkyne labeling and click chemistry. For concentration-dependent reactivity measurements by isoTOP-ABPP, 0.5 ml proteome aliquots were treated at ambient temperature with 1 mM STP-alkyne 1 (5 μl of 100 mM stock in DMSO) and 0.1 mM STP alkyne 1 (5 μl of 10 mM stock in DMSO), respectively. For competitive isoTOP-ABPP, after in vitro fragment treatment (detailed above), the samples were labeled for 1 h at ambient temperature with 0.1 mM STP-alkyne 1 (5 μl of 10 mM stock in DMSO). Samples were conjugated by copper-mediated azide-alkyne cycloaddition (CuAAC) to either the light (1 mM STP-alkyne or fragment treated) or heavy (0.1 mM STP-alkyne or DMSO treated) TEV tags (10 μl of 5 mM stocks in DMSO, final concentration=100 μM) using tris(2-carboxyethyl)phosphine hydrochloride
R value calculation and processing. The ratios of light and heavy MS1 peaks for each unique peptide were quantified with a CIMAGE software using default parameters (3 MS1 acquisitions per peak and signal to noise threshold set to 2.5). For reactivity measurements by isoTOP-ABPP, the R value was calculated from the ratio of MS1 peak areas, comparing the 1 mM STP alkyne sample (light TEV tag) with the 0.1 mM STP alkyne sample (heavy TEV tag). For competitive isoTOP-ABPP, the R value was calculated from the ratio of MS1 peak areas, comparing the DMSO treated sample (heavy TEV tag) with the compound treated sample (light TEV tag). […] Ratios for unique peptide entries are calculated for each experiment; overlapping peptides with the same modified lysine (for example, different charge states, MudPIT chromatographic steps or tryptic termini) are grouped together and the median ratio is reported as the final ratio (R). The peptide ratios reported by CIMAGE were further filtered to ensure the removal or correction of low-quality ratios in each individual data set. The quality filters applied were the following: removal of half tryptic peptides; for ratios with high standard deviations from the median (90% of the median or above) the lowest ratio was taken instead of the median; removal of peptides with R=20 and only a single MS2 event triggered during the elution of the parent ion; manual annotation of all the peptides with ratios of 20, removing any peptides with low quality elution profiles that remained after the previous curation steps (only done for competitive isoTOP-ABPP).
Cross-data processing for fragment screening. For compound treated samples, biological replicates of the same condition were averaged, if the standard deviation was below 60% of the mean; otherwise, for lysines with at least one R value <4 for a particular compound, the lowest value of the ratio set was taken. For lysines, where all R values for a particular compound were ≥4, the average was reported. For peptides containing several possible modified lysines, the lysine with the highest number of quantification events was used for analysis and the remaining, redundant peptides were reported as alternative modification sites. Peptides included in the aggregate dataset (those used for further bioinformatics and statistical analyses) were required to have been quantified in 2 experiments for competitive isoTOP-ABPP. Lysines were categorized as liganded, if they had at least one ratio R≥4 (hit fragments). For liganded lysines with R=20 for all liganding events, lysines were required to have been quantified with R=20 in two separate experiments and were further required to have been quantified with R<20 in one additional experiment.

[2] = target: T2, CUL2 Cullin-2 (Homo sapiens, UniProt Q13617)
T2 construct: isoTOP-ABPP experiments performed in cell lysates (in vitro); endogenous in cells; host or cells: soluble proteome of human cancer cell lines (MDA-MB-231, Ramos, Jurkat)
In short: (§1)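 Probe: STP-alkyne, 0.1 mM, 1 h RT, after fragment pretreatment of lysate (esters 50 μM; guanidinylators 100 μM). Tags: light = compound, heavy = DMSO, via CuAAC. Replicates averaged if SD <60% of mean; otherwise lowest ratio used when any R <4.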

[3] = target: T3, FECH Ferrochelatase, mitochondrial (Homo sapiens, UniProt P22830)
T3 construct: isoTOP-ABPP experiments performed in cell lysates (in vitro); endogenous in cells; host or cells: soluble proteome of human cancer cell lines (MDA-MB-231; Ramos and Jurkat also prepared)
T3 sequence (P22830 55-423): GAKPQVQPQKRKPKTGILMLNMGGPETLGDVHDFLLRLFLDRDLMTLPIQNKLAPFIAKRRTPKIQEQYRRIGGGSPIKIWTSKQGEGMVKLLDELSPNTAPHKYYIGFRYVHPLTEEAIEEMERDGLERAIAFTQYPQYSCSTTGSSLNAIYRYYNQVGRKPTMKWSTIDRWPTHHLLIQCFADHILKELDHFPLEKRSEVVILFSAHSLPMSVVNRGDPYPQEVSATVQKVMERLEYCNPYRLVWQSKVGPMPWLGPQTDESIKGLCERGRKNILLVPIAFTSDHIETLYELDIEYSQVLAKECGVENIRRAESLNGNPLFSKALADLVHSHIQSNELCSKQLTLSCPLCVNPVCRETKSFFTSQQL
In short: as §1

[4] = target: T4, KPNA2 Importin subunit alpha-2 (Homo sapiens, UniProt P52292)
T4 construct: isoTOP-ABPP experiments performed in cell lysates (in vitro); endogenous in cells; host or cells: soluble proteome of human cancer cell lines (MDA-MB-231, Ramos, Jurkat)
In short: as §1

[5] = target: T5, RPL10 60S ribosomal protein L10 (Homo sapiens, UniProt P27635)
T5 construct: isoTOP-ABPP experiments performed in cell lysates (in vitro); endogenous in cells; host or cells: soluble proteome of human cancer cell lines (MDA-MB-231; Ramos and Jurkat also prepared)
In short: as §1

T2 sequence (Q13617 whole entry): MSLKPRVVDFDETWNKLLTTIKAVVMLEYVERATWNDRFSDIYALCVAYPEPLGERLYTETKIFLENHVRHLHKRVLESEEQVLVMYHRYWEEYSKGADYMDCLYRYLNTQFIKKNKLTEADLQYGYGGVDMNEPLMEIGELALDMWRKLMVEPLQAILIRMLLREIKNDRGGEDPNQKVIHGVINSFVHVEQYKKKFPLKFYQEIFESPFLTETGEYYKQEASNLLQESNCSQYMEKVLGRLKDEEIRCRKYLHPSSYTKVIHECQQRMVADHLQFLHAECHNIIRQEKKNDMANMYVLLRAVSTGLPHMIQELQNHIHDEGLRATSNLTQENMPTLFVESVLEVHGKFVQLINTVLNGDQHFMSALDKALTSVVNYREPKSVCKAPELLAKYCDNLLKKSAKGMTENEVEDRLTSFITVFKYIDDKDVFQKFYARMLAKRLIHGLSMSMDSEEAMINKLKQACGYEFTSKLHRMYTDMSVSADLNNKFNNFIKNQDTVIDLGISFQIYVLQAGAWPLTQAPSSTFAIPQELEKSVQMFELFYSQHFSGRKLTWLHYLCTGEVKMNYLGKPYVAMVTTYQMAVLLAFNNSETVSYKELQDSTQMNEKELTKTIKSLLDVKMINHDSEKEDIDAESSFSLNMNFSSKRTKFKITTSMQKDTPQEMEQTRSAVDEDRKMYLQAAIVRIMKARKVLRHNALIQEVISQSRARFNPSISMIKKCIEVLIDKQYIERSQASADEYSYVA

- isoTOP-ABPP ratio, lysine Q9NUJ1_K185 ([1]; 100 uM_231_sol_in vitro): 1.5
- isoTOP-ABPP ratio, lysine Q13617_K489 ([2]; 100 uM_231_sol_in vitro): 1.1
- isoTOP-ABPP ratio, lysine P22830_K304 ([3]; 100 uM_231_sol_in vitro): 5.3
- isoTOP-ABPP ratio, lysine P52292_K459 ([4]; 100 uM_231_sol_in vitro): 1.1
- isoTOP-ABPP ratio, lysine P27635_K121 ([5]; 100 uM_231_sol_in vitro): 1.8
Structure (SMILES): COC(=O)NC(=NC(=O)OCC1c2ccccc2-c2ccccc21)n1cccn1 [fragment 49, N-Methoxycarbonyl-N′-9-fluorenylmethoxycarbonyl-pyrazole-1-carboxamidine]

- R value (DMSO/fragment) for probe 1 labeling ([1]; Q9NUJ1_K185, 50 uM, 231 sol, in vitro): 1.2
- R value (DMSO/fragment) for probe 1 labeling ([2]; Q13617_K489, 50 uM, 231 sol, in vitro): 0.8
- R value (DMSO/fragment) for probe 1 labeling ([3]; P22830_K304, 50 uM, 231 sol, in vitro): 1.8
- R value (DMSO/fragment) for probe 1 labeling ([4]; P52292_K459, 50 uM, 231 sol, in vitro): 2.3
- R value (DMSO/fragment) for probe 1 labeling ([5]; P27635_K121, 50 uM, 231 sol, in vitro): 0.9
Structure (SMILES): O=C(CCc1cn(-c2ccccc2)nc1-c1ccccc1)Oc1c(F)c(F)c(F)c(F)c1F [fragment 19, Pentafluorophenyl 3-(1,3-diphenyl-1H-pyrazol-4-yl)propanoate]

- isoTOP-ABPP ratio, lysine Q9NUJ1_K185 ([1]; 50 uM_231_sol_in vitro): 2.7
- isoTOP-ABPP ratio, lysine Q13617_K489 ([2]; 50 uM_231_sol_in vitro): 0.8
- isoTOP-ABPP ratio, lysine P22830_K304 ([3]; 50 uM_231_sol_in vitro): 1.1
- isoTOP-ABPP ratio, lysine P52292_K459 ([4]; 50 uM_231_sol_in vitro): 1.1
- isoTOP-ABPP ratio, lysine P27635_K121 ([5]; 50 uM_231_sol_in vitro): 0.8
Structure (SMILES): O=C(Oc1c(F)c(F)cc(F)c1F)c1cc(C(F)(F)F)cc(C(F)(F)F)c1 [fragment 48, 2,3,5,6-Tetrafluorophenyl 3,5-bis(trifluoromethyl)benzoate]

— patent US20210255193A1, “LYSINE REACTIVE PROBES AND USES THEREOF” (The Scripps Research Institute, priority 2017, published 2021)
